{"source": "patent US20240277713A1", "about": "(Kadmon Corporation, LLC, priority 2022, published 2024)", "key": {"dogs": {"test_system": "dogs", "experiment": "General toxicology studies in dogs", "format": "in vivo, dog"}, "CYP1A2": {"target": "T1, CYP1A2 (Homo sapiens, UniProt P05177)", "T1 sequence (P05177 1-516)": "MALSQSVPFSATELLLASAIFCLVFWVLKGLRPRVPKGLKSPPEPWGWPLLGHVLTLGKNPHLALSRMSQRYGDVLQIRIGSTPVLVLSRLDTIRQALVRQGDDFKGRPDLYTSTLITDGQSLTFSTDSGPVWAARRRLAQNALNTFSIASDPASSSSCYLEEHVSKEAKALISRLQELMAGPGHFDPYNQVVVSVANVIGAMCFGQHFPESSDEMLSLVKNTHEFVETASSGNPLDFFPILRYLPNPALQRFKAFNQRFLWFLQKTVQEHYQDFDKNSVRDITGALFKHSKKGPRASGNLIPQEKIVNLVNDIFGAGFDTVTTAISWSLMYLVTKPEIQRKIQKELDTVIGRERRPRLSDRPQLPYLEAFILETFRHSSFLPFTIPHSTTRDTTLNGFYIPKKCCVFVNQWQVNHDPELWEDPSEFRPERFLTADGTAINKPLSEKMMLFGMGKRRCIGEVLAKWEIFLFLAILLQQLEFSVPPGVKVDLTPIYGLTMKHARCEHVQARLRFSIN", "experiment": "Enzyme systems in vitro: CYP1A2", "format": "in vitro ADME"}, "[1]": {"experiment": "Toxicokinetic evaluation in pregnant rabbits (Example 4)", "format": "in vivo, rabbit", "conditions": "for Cmax / AUC(0-t): female, New Zealand White, rabbit, plasma, po; for AUC(0-t): read-out: Mean AUC0-24 in plasma of pregnant rabbits", "description": "The dose levels for the treated groups were 50, 125, 225, mg base/kg/day at a dose volume of 10 mL/kg. The control group received the vehicle in the same manner as the treated groups. […] Individual doses were based on the most recent body weights.\nObservations of the animals included clinical signs, body weights, food consumption, and anatomical pathology including a uterine examination. […] All fetuses were given an external, visceral, and skeletal examination."}, "rats": {"test_system": "rats", "experiment": "General toxicology studies in rats", "format": "in vivo, rat"}, "[2]": {"conditions": "50 mg base/kg, GD 18, belumosudil 50 mg base/kg oral"}, "[3]": {"conditions": "50 mg/kg/day, GD 6, belumosudil 50 mg base/kg oral"}, "[4]": {"conditions": "125 mg/kg/day, GD 6, belumosudil 125 mg base/kg oral"}, "[5]": {"conditions": "125 mg/kg/day, GD 18, belumosudil 125 mg base/kg oral"}, "[6]": {"conditions": "225 mg/kg/day, GD 6, belumosudil 225 mg base/kg oral"}, "[7]": {"conditions": "225 mg/kg/day, GD 18, belumosudil 225 mg base/kg oral"}}, "note": "Where two headings read alike, the source gives them in different places."}
{"smiles": "CC(C)NC(=O)COc1cccc(-c2nc(Nc3ccc4[nH]ncc4c3)c3ccccc3n2)c1", "note": "[belumosudil, 2-{3-[4-(1H-indazol-5-ylamino)-2-quinazolinyl]phenoxy}-N-(propan-2-yl) acetamide]", "values": [{"measurement": "dose with spermatozoa degeneration", "setting": "dogs", "result": 35, "unit": "mg/kg/day"}, {"measurement": "CYP1A2 inhibition", "setting": "CYP1A2", "result": "inhibitor"}, {"measurement": "Cmax", "setting": "[1]; [2]", "result": 437, "unit": "ng/mL"}, {"measurement": "AUC(0-t)", "setting": "[1]; [2]", "result": 1590, "unit": "ng·h/mL"}, {"measurement": "Cmax", "setting": "[1]; [3]", "result": 919, "unit": "ng/mL"}, {"measurement": "AUC(0-t)", "setting": "[1]; [3]", "result": 3870, "unit": "ng·h/mL"}, {"measurement": "Cmax", "setting": "[1]; [4]", "result": 3030, "unit": "ng/mL"}, {"measurement": "AUC(0-t)", "setting": "[1]; [4]", "result": 21400, "unit": "ng·h/mL"}, {"measurement": "Cmax", "setting": "[1]; [5]", "result": 1670, "unit": "ng/mL"}, {"measurement": "AUC(0-t)", "setting": "[1]; [5]", "result": 9290, "unit": "ng·h/mL"}, {"measurement": "Cmax", "setting": "[1]; [6]", "result": 4140, "unit": "ng/mL"}, {"measurement": "AUC(0-t)", "setting": "[1]; [6]", "result": 55700, "unit": "ng·h/mL"}, {"measurement": "Cmax", "setting": "[1]; [7]", "result": 2580, "unit": "ng/mL"}, {"measurement": "AUC(0-t)", "setting": "[1]; [7]", "result": 23500, "unit": "ng·h/mL"}, {"measurement": "accumulation after multiple dosing of belumosudil", "setting": "[1]; pregnant rabbits", "result": "no apparent accumulation"}, {"measurement": "dose with decreased follicular development in ovaries", "setting": "rats", "result": 275, "unit": "mg/kg/day"}]}
